Like-named read-outs stand apart in the source and are kept apart here.
How the values were obtained:
HPAEpiC = experiment: SRB growth inhibition assay, non-tumor pulmonary alveolar epithelial cells; assay type: cell-based; details: Homo sapiens, Epithelial cell, 48 h
Procedure: (§1) A sulforhodamine B (SRB) assay was performed to evaluate the in vitro growth inhibitory activity of all synthesized hybrids, as well as intermediates in the human tumor cell lines of melanoma (A375-C5), breast adenocarcinoma (MCF-7), and colorectal carcinoma (HCT116), as well as on the non-tumor Human Pulmonary Alveolar Epithelial cell line (HPAEpiC). The concentration inducing 50% cell growth inhibition (GI50), was calculated. […] The overall results prompt us to further investigate the mechanism behind the cytotoxic activities of compounds 6, 7, and 13 in colorectal tumor cells. Moreover, in silico studies were performed, aiming to screen for drug-likeness.
(§2) A375-C5 (melanoma) and MCF-7 (breast adenocarcinoma) cell lines were obtained from the European Collection of Cell Culture, UK, and were grown in RPMI-1640 medium (Roswell Park Memorial Institute, Biochrom, Cambridge, UK) with 5% inactivated FBS (fetal bovine serum, Biochrom). HCT-116 (colon adenocarcinoma) cells were grown in DMEM medium (Dulbecco’s Modified Eagle’s, Biochrom) with 5% inactivated FBS. The non-tumor human pulmonary alveolar epithelial cells (HPAEpiC) were obtained from ScienCell Research Laboratories and grown in DMEM medium supplemented with 10% FBS and 1% non-essential amino acids (Sigma-Aldrich Co., Saint Louis, MO, USA). All cell lines were maintained in a humidified incubator (Hera Cell, Heraeus, Hanau, Germany) at 37 °C and with 5% CO2, and cell viability was regularly monitored using the exclusion trypan blue dye.
(§3) A total of 5.0 × 10^4 A375-C5, MCF-7, and HCT-116 cells, or 6.0 × 10^4 HPAEpiC cells were seeded in 96-well plates and incubated at 37 °C and 5% CO2 to allow for cell attachment. After 24 h, cells were treated with two-fold serial dilutions of test compounds (0–150 µM), or with DMSO as the compound solvent. In parallel, cells in a time-zero (T0) plate, without treatment, were fixed with 50% (m/v) trichloroacetic acid (TCA, Merck Millipore, Darmstadt, Germany), for 1 h at 4 °C, and then washed with distilled water and left to dry. Forty-eight hours after compound treatment, cells were fixed with 50% TCA and stained with SRB (Sigma-Aldrich Co., Ltd., Gillingham, UK) for 30 min at room temperature, followed by 5 rounds of washing with 1% (v/v) acetic acid (Merck Milli-pore, Darmstadt, Germany). SRB–protein complexes were then solubilized with […] Tris buffer (Sigma-Aldrich Co., Ltd., Gillingham, UK) for 30 min, and the absorbance was measured at 515 nm in a microplate reader (Biotek Synergy 2, BioTek Instruments, Inc., Winooski, VT, USA). A dose-response curve was obtained for each cell line, and the concentration that caused 50% cell growth inhibition (GI50) was calculated.

MCF-7 = experiment: SRB growth inhibition assay, breast adenocarcinoma cells; assay type: cell-based; details: Homo sapiens, MCF7, 48 h
Procedure: as §1, §2, §3

A375-C5 = experiment: Sulforhodamine B (SRB) growth inhibition assay, melanoma cells; assay type: cell-based; details: Homo sapiens, 48 h
Procedure: as §1, §2, §3

HCT116 (HCT116 p53+/+) = experiment: SRB growth inhibition assay, colorectal carcinoma cells; assay type: cell-based; details: Homo sapiens, HCT-116
Procedure: as §1, §2, §3

[1] = test system: A375-C5, MCF-7 and HCT116 cell lines; experiment: SRB growth inhibition, range over the tumor cell lines of Table 1; assay type: cell-based; details: Homo sapiens; SAR discussion, values of Table 1
Procedure: Considering the antiproliferative effects on tumor cells of all the studied compounds (Table 1), some SAR considerations may be undertaken (Figure 2). […] Nevertheless, this effect is not observed for the flavone derivatives 15 and 16. […] Additionally, with the screening of the synthetic intermediates, some conclusions can also be inferred (Figure 2).
as §3

p53–MDM2 interaction = biological target: T1, p53–MDM2 interaction (Homo sapiens, UniProt Q00987); experiment: Yeast targeted screening assay of p53–MDM2 interaction; details: 10 μM, yeast cell-based assay, data not shown
T1 construct: expressed in transfected cells; host or cells: Saccharomyces cerevisiae strain CG379
Procedure: However, since CM-M345 (1) has been previously reported as a p53-MDM2 inhibitor by our research group, the effect of 10 μM of compounds 6, 7, and 13 on the p53–MDM2 interaction was analyzed using yeast cell-based assays.
Saccharomyces cerevisiae (strain CG379) expressing human wt p53 alone and combined with human MDM2 were obtained in previous works. For the expression of human proteins (routinely grown in minimal selective medium), cells were diluted to 0.05 OD600 in selective induction medium containing 2% (w/w) galactose, 1% (w/w) raffinose, 0.7% (w/w) yeast nitrogen base without amino acids from Difco (Quilaban, Sintra, Portugal), and all the amino acids required for yeast growth ([…]) except leucine and tryptophan. Yeast cells were incubated at 30 °C under continuous orbital shaking (200 rpm) with 10 µM compounds or 0.1% DMSO only, for approximately 42 h (time required by the control yeast, co-transformed with the empty vectors and incubated with DMSO only, to achieve 0.4 OD600). Yeast growth was analyzed by counting the number of colony-forming units (CFU) after 2 days of incubation at 30 °C on Sabouraud Dextrose Agar from Liofilchem (Frilabo, Porto, Portugal).

HCT116 p53−/− = experiment: SRB growth inhibition assay, p53 knocked-out colorectal cells; assay type: cell-based, human
Procedure: as §3

HCT116 cells [2] = experiment: Apoptosis detection via flow cytometry (Annexin V-FITC/PI); assay type: cell-based, human; details: HCT116, 48 h, vs untreated or DMSO
Procedure: Double labeling with annexin V-FITC and propidium iodide dyes was used to detect cells going through apoptotic events, using a flow cytometer in order to obtain insights into the mechanism by which compounds 6, 7, and 13 generate antiproliferative activity against colorectal carcinoma cells. For that, HCT116 cells were exposed to each compound for 48 h.
To evaluate apoptotic cell death, the “Annexin V-FITC Apoptosis Detection Kit” (eBioscience, Vienna, Austria) was used according to the manufacturer’s instructions. Briefly, 1.2 × 10^5 cells/well were seeded into 6-well plates, and 24 h later, cells were treated with compounds 6, 7, and 13. After 48 h, floating and adherent cells were collected, pelleted via centrifugation (1000 rpm, 5 min), and suspended in binding buffer. Annexin V-FITC was added and incubated for 10 min, protected from light. Cells were washed and resuspended in binding buffer, and 20 μg/mL of propidium iodide (PI) was added. Fluorescence was assessed using the BD Accuri™ C6 Plus flow cytometer (BD Biosciences, Qume Drive, San Jose, CA, USA), and the data were analyzed with the BD Accuri TM C6 Plus software (version 1.0.27.1, San Jose, CA, USA). At least 20,000 events per sample were collected.

HCT116 cells [3] = experiment: Mitotic arrest / mitotic index by phase-contrast microscopy; assay type: cell-based, human; details: HCT116, 24 h, phase contrast microscopy
Procedure: Disruption of cell cycle progression is considered one of the most common cytotoxic mechanisms of anticancer drugs. Moreover, the antimitotic effect of BP-M345 (2) has been previously reported. Therefore, compounds 6, 7, and 13 were tested for their capability to induce cell cycle arrest. HCT116 cells were exposed for 24 h to the compounds and then analyzed using phase contrast microscopy for morphological changes. Untreated and dimethyl sulfoxide (DMSO; solvent)-treated cells were used as negative controls. Cell exposure to nocodazole, an antimitotic agent, was used as a positive control. […] We thus calculated the mitotic index (MI), and observed a significant increase in MI in 7-treated cells (22.76 ± 4.30%) compared to the untreated (12.68 ± 1.98%) or DMSO-treated (12.81 ± 1.45%) (Figure 4c).
A total of 1.2 × 10^5 HCT-116 cells were grown in six-well dishes and treated for 24 h with 3.26 µM of compound 7. Cells treated with 1 µM nocodazole were used as a positive control for antimitotic activity. Untreated cells and cells treated with DMSO were included to exclude the cytotoxicity of the compound solvent. Mitotic index, and the percentage of mitotic cells over the total cell population were determined via cell-rounding under phase-contrast microscopy from at least ten random microscope fields.
For phase contrast microscopy images, a Nikon TE 2000-U microscope (Nikon, Amsterdam, The Netherlands) with a 10× objective was used, coupled to a DXM1200F digital camera with Nikon ACT-1 software (Melville, NY, USA). For fluorescence images, an Axio Observer Z.1 SD microscope (Carl Zeiss, Germany) was used, coupled to an AxioCam MR3, with the Plan Apochromatic 63×/NA 1.4 objective. The images were processed using ImageJ, version 1.51.

[4] = SRB, 48 h, read-out: GI50 HCT116
[5] = Table 2, 48 h, read-out: GI50 HCT116 p53+/+

T1 sequence (Q00987 whole entry): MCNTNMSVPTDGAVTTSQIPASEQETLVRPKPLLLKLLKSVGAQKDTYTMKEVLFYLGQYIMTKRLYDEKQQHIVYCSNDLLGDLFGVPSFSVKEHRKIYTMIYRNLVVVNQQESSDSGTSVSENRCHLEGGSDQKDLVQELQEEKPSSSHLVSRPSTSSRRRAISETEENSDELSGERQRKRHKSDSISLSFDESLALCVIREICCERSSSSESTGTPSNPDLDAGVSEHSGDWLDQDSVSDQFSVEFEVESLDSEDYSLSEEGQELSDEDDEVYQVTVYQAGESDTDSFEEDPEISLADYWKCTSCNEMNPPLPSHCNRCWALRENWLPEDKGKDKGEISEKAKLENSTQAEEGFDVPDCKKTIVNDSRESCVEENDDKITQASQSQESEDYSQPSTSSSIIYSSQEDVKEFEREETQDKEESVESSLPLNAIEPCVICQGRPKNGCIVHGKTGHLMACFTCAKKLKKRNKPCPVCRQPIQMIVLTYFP

Row | Structure (SMILES) | GI50 (MCF-7) | melting point | GI50 (A375-C5) | GI50 (HCT116 (HCT116 p53+/+); [4]) | GI50 [1] | SI, selective index (GI50 of HCT116 p53−/−/GI50 of HCT116 p53+/+) (HCT116 p53−/−) | GI50 (HCT116 p53−/−; Homo sapiens, HCT-116, Table 2, 48 h) | GI50 (HCT116 (HCT116 p53+/+); [5]) | GI50 (HPAEpiC) | Effect on the p53–MDM2 interaction (reversal of the negative growth effect of MDM2 on p53) (p53–MDM2 interaction) | Apoptosis induction (Annexin V-positive cells) (HCT116 cells [2]) | Accumulation of bright and rounded (mitotic) cells (HCT116 cells [3])
1 | CCCc1c(OCC(=O)O)ccc(C(=O)/C=C/c2cc(OC)c(OC)c(OC)c2)c1O [Compound 11, (E)-2-(3-hydroxy-2-propyl-4-(3-(3,4,5-trimethoxyphenyl)acryloyl)phenoxy)acetic acid] | 58.3 ± 8.37 µM | 200 to 202 °C | 29.4 ± 1.05 µM | 26.9 ± 1.6 µM | 26.9 to 58.3 µM | – | – | – | > 75 µM | – | – | –
2 | CCCc1c(OCCNC(=O)OC(C)(C)C)ccc2c(=O)cc(-c3cc(OC)c(OC)c(OC)c3)oc12 [Compound 14, tert-butyl (2-((4-oxo-8-propyl-2-(3,4,5-trimethoxyphenyl)-4H-chromen-7-yl)oxy)ethyl)carbamate] | > 75 µM | 191 to 193 °C | > 75 µM | > 75 µM | – | – | – | – | > 75 µM | – | – | –
3 | CCCc1c(OCC(=O)O)ccc2c(=O)cc(-c3cc(OC)c(OC)c(OC)c3)oc12 [Compound 18, 2-((4-oxo-8-propyl-2-(3,4,5-trimethoxyphenyl)-4H-chromen-7-yl)oxy)acetic acid] | > 75 µM | – | > 75 µM | > 75 µM | – | – | – | – | > 75 µM | – | – | –
4 | COc1cccc2c1C(=O)c1c(O)c3c(c(O)c1C2=O)C[C@@](O)(C(=O)CO)C[C@@H]3O[C@H]1C[C@H](N)[C@H](O)[C@H](C)O1 [Doxorubicin, reference compound] | 0.083 ± 0.003 µM | – | 0.028 ± 0.002 µM | 0.085 ± 0.008 µM | – | – | – | – | 0.091 ± 0.013 µM | – | – | –
5 | COc1cc([C@@H]2c3cc4c(cc3[C@@H](O[C@@H]3O[C@@H]5CO[C@@H](C)O[C@H]5[C@H](O)[C@H]3O)[C@H]3COC(=O)[C@H]23)OCO4)cc(OC)c1O [Etoposide, reference compound] | – | – | – | – | – | – | – | 0.71 µM | – | – | – | –

Further lines, with some results ahead:

Row | GI50 (MCF-7) | melting point | GI50 (A375-C5) | GI50 (HCT116 (HCT116 p53+/+); [4]) | GI50 [1] | SI, selective index (GI50 of HCT116 p53−/−/GI50 of HCT116 p53+/+) (HCT116 p53−/−) | GI50 (HCT116 p53−/−; Homo sapiens, HCT-116, Table 2, 48 h) | GI50 (HCT116 (HCT116 p53+/+); [5]) | Structure (SMILES) | GI50 (HPAEpiC) | Effect on the p53–MDM2 interaction (reversal of the negative growth effect of MDM2 on p53) (p53–MDM2 interaction) | Apoptosis induction (Annexin V-positive cells) (HCT116 cells [2]) | Accumulation of bright and rounded (mitotic) cells (HCT116 cells [3])
6 | > 75 µM | 201 to 203 °C | > 75 µM | 13.5 ± 2.46 µM | – | – | – | – | CCCc1c(OCCNC(=O)c2cc(OC)c(OC)c(OC)c2)ccc(C(=O)/C=C/c2cc(OC)c(OC)c(OC)c2)c1O [Compound 8, (E)-N-(2-(3-hydroxy-2-propyl-4-(3-(3,4,5-trimethoxyphenyl)acryloyl)phenoxy)ethyl)-3,4,5-trimethoxybenzamide] | > 75 µM | – | – | –
7 | > 75 µM | 212 to 214 °C | > 75 µM | > 75 µM | > 75 µM | – | – | – | CCCc1c(OCC(=O)O)ccc(C(=O)/C=C/c2cc(OC)c(OC)c(OC)c2)c1OCC(=O)O [Compound 12, (E)-2,2’-((2-propyl-4-(3-(3,4,5-trimethoxyphenyl)acryloyl)-1,3-phenylene)bis(oxy))diacetic acid] | > 75 µM | – | – | –
8 | 18.8 ± 3.46 µM | – | 9.37 ± 0.9 µM | 2.66 ± 0.87 µM | – | 1.54 | 4.1 ± 0.5 µM | 2.66 ± 0.87 µM | CCCc1c(OCC(=O)Nc2cc(OC)c(OC)c(OC)c2)ccc(C(=O)/C=C/c2cc(OC)c(OC)c(OC)c2)c1O [Compound 13, (E)-2-(3-hydroxy-2-propyl-4-(3-(3,4,5-trimethoxyphenyl)acryloyl)phenoxy)-N-(3,4,5-trimethoxyphenyl)acetamide] | 10.8 ± 0.23 µM | none of the tested compounds significantly reversed the negative inhibitory growth effect of MDM2 on p53 | induces apoptotic tumor cell death | not observed
9 | > 75 µM | 198 to 199 °C | > 75 µM | > 75 µM | – | – | – | – | CCCc1c(OCCNC(=O)/C=C/c2cc(OC)c(OC)c(OC)c2)ccc2c(=O)cc(-c3cc(OC)c(OC)c(OC)c3)oc12 [Compound 15, (E)-N-(2-((4-oxo-8-propyl-2-(3,4,5-trimethoxyphenyl)-4H-chromen-7-yl)oxy)ethyl)-3-(3,4,5-trimethoxyphenyl)acrylamide] | > 75 µM | – | – | –
10 | > 75 µM | 196 to 199 °C | > 75 µM | 28.6 ± 5.05 µM | – | – | – | – | CCCc1c(OCCNC(=O)c2cc(OC)c(OC)c(OC)c2)ccc2c(=O)cc(-c3cc(OC)c(OC)c(OC)c3)oc12 [Compound 16, 3,4,5-trimethoxy-N-(2-((4-oxo-8-propyl-2-(3,4,5-trimethoxyphenyl)-4H-chromen-7-yl)oxy)ethyl)benzamide] | > 75 µM | – | – | –
11 | > 75 µM | 195 to 197 °C | > 75 µM | 24.7 ± 3.04 µM | – | – | – | – | CCCc1c(OCC(=O)Nc2cc(OC)c(OC)c(OC)c2)ccc2c(=O)cc(-c3cc(OC)c(OC)c(OC)c3)oc12 [Compound 17, 2-((4-oxo-8-Propyl-2-(3,4,5-trimethoxyphenyl)-4H-chromen-7-yl)oxy)-N-(3,4,5-trimethoxyphenyl)acetamide] | > 75 µM | – | – | –

Reference: publication PMC10303900, “Discovery of a New Chalcone-Trimethoxycinnamide Hybrid with Antimitotic Effect: Design, Synthesis, and Structure—Activity Relationship Studies” (Pharmaceuticals, 2023)
